Test results as given in US7595327B2, “Beta-sulfonamide hydroxamic acid inhibitors of tace/matrix metalloproteinase” (priority 2005, dated 2009).
Read-outs that look alike come from different tables or passages of the source.

Experiments:
[1] = target: T1, recombinant human MMP-2 (Homo sapiens, UniProt P08253); assay: In-vitro fluorescence assay of MMP-2 activity; format: biochemical
T1 sequence (P08253 110-660): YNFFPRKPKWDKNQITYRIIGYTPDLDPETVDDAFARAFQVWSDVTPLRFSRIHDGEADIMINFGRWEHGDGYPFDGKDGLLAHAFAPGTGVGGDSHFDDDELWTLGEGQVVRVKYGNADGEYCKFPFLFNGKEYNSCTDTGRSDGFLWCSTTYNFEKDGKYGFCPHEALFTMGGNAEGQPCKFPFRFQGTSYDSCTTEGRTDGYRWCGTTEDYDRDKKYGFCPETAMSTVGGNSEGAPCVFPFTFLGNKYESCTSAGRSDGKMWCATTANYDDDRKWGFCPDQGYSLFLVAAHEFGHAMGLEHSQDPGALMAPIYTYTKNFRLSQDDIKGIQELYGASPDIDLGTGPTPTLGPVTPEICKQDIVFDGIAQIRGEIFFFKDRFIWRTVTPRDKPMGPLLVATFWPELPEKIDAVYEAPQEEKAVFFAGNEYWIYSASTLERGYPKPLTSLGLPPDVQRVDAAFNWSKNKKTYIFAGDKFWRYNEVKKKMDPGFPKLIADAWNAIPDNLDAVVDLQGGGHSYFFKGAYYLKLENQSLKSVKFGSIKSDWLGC

[2] = system: LPS-induced TNF-α secretion in human whole blood; assay: Human whole blood assay for LPS-induced TNF-α secretion; format: cell-based; conditions: LPS 100 ng/ml, read-out: TNF Secretion HWB IC50
Procedure, shortened: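 Fresh blood from healthy volunteers pre-incubated 1 h at 37° C with compound (final DMSO <0.2%), then stimulated with 100 ng/ml LPS for 4 h or overnight at 37° C with rotation. Supernatant TNF-α measured by ELISA; percent inhibition and IC50 derived by curve fitting.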

[3] = target: T2, TACE (catalytic domain of the recombinant TACE protein) (Homo sapiens, UniProt P78536); assay: TACE FRET assay using TACE Cat; format: biochemical; conditions: FRET, pro-TNF-α substrate peptide; read-out: TACE IC50
T2 construct: The catalytic domain of the recombinant TACE protein was expressed and purified; made in house
T2 sequence (P78536 223-474 limits assumed): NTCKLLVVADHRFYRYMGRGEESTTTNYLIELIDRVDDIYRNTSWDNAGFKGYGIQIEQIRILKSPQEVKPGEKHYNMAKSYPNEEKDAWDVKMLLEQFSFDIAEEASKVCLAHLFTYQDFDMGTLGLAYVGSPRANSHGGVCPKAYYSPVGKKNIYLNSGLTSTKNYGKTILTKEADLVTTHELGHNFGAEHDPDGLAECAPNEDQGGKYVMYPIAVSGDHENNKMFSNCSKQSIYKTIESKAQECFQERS
Procedure, shortened: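 Recombinant TACE catalytic domain (1 ug/ml) pre-incubated 10 min at room temperature with inhibitor in 50 mM Tris-HCl pH 7.4, 25 mM NaCl, 4% glycerol, 0.005% Brij 35; Abz/Dpa pro-TNF-α peptide substrate added, fluorescence (Ex 320/Em 420) followed 10 min; IC50 from initial rates by Hill fit.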

[4] = system: TNF-α secretion in Raw 264.7 cells; assay: Cell-based assay for inhibition of TNF-α secretion in Raw cells; conditions: Mus musculus, RAW264.7, LPS 100 ng/ml, 4 hr
Procedure, shortened: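 Confluent Raw 264.7 cells were seeded overnight, refed, and pre-incubated 1 hr with compound (0.2% final DMSO), then stimulated with LPS at 100 ng/ml final for 4 hr at 37° C. Supernatant TNF-α measured by ELISA; % inhibition and IC50 by curve fitting.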

[5] = target: MMP-13 (Homo sapiens, UniProt P45452); assay: In-vitro fluorescence assay of MMP-13 activity; format: biochemical
Description: See Knight, C. […] […].
The method was essentially the same as for the determination of MMP-1 activity, described above, except that the final concentration of purified MMP in the assay was 0.5 nM, prepared by diluting with the assay buffer.

[6] = target: T3, recombinant human catalytic domain of MMP-1 (Homo sapiens, UniProt P03956); assay: In-vitro fluorescence assay of MMP-1 activity; format: biochemical
T3 construct: The source of enzyme in the assay was the recombinant human catalytic domain of MMP-1
T3 sequence (P03956 100-269 limits assumed): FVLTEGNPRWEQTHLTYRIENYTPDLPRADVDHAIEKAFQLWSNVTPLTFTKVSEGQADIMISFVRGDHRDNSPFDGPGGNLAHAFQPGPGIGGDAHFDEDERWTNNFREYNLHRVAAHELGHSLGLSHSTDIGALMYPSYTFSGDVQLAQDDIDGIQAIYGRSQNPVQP

[7] = target: T4, recombinant human catalytic domain of MMP-14 (Homo sapiens, UniProt P50281); assay: In-vitro fluorescence assay of MMP-14 activity; format: biochemical
T4 construct: 20 kDa; purchased Chemicon International, Inc. CC1041
Description: The results were analyzed as described for MMP-13 activity, above.

Row | IC50 [1] [nM] | IC50 ([2]; Homo sapiens) [nM] | IC50 [3] [nM] | IC50 [4] [nM] | IC50 [5] [nM] | IC50 [6] [nM] | IC50 [7] [nM] | IC50 [2] [nM] | SMILES
1 | > 16700 | 500 | 1 | 21 | > 16700 | > 16700 |  |  | Cc1cc(COc2ccc(S(=O)(=O)N[C@@H]3CN(C=O)CCC3C(=O)NO)cc2)c2ccccc2n1 (mixture of isomers) [Example 34, 1-Formyl-3-[4-(2-methyl-quinolin-4-ylmethoxy)-benzenesulfonylamino]-piperidine-4-carboxylic acid hydroxyamide]
2 | > 16700 | 1000 | 1.3 | 202 | > 16700 | > 16700 |  |  | CC(=O)N1CCC(C(=O)NO)C(NS(=O)(=O)c2ccc(OCc3cc(C)nc4ccccc34)cc2)C1 (mixture of isomers) [Example 36, 1-Acetyl-3-[4-(2-methyl-quinolin-4-ylmethoxy)-benzenesulfonylamino]-piperidine-4-carboxylic acid hydroxyamide]
3 | > 16700 | 1600 | < 0.6 | 18 | 6380 | > 16700 | > 16700 |  | Cc1cc(COc2ccc(S(=O)(=O)N[C@@H]3[C@H]4CC[C@H](C4)[C@@H]3C(=O)NO)cc2)c2ccccc2n1 (relative stereo) [Example 4, exo-N-Hydroxy-3-[({4-[(2-methylquinolin-4-yl)methoxy]phenyl}sulfonyl)amino]bicyclo[2.2.1]heptane-2-carboxamide]
4 | > 16700 | 5900 | < 0.6 | 270 | > 16700 |  |  |  | Cc1cc(COc2ccc(S(=O)(=O)N[C@@H]3CCC[C@]3(C)C(=O)NO)cc2)c2ccccc2n1 [Example 55, (1S,2R)-N-hydroxy-1-methyl-2-[({4-[(2-methylquinolin4-yl)methoxy]phenyl}sulfonyl)amino]cyclopentanecarboxamide]

The remaining lines, values behind:

Row | SMILES | IC50 [1] [nM] | IC50 ([2]; Homo sapiens) [nM] | IC50 [3] [nM] | IC50 [4] [nM] | IC50 [5] [nM] | IC50 [6] [nM] | IC50 [7] [nM] | IC50 [2] [nM]
5 | Cc1cc(COc2ccc(S(=O)(=O)N(C)[C@@H]3[C@H]4CC[C@H](C4)[C@@H]3C(=O)NO)cc2)c2ccccc2n1 (racemic) [Example 1, exo-N-Hydroxy-3-[methyl({4-[(2-methylquinolin-4-yl)methoxy]phenyl}sulfonyl)amino]bicyclo[2.2.1]heptane-2-carboxamide] | 6180 | 3000 | 2 | 18 |  |  | > 16700 | 
6 | Cc1cc(COc2ccc(S(=O)(=O)N(C)[C@H]3[C@@H](C(=O)NO)[C@@H]4CC[C@H]3O4)cc2)c2ccccc2n1 (relative stereo) [Example 3, exo-N-Hydroxy-3-[methyl({4-[(2-methylquinolin-4-yl)methoxy]phenyl}sulfonyl)amino]-7-oxabicyclo[2.2.1]heptane-2-carboxamide] | 4120 | 2200 | 1.1 | 10 | 3310 | > 16700 | > 16700 | 
7 | Cc1cc(COc2ccc(S(=O)(=O)N(C)C3C4CCC(C4)C3C(=O)NO)cc2)c2ccccc2n1 (single isomer, unassigned) [Example 1a, exo-N-hydroxy-3-[methyl({4-[(2-methylquinolin-4-yl)methoxy]phenyl}sulfonyl)amino]bicyclo[2.2.1]heptane-2-carboxamide] | 4580 |  | 1.3 |  | > 16700 | > 16700 | > 16700 | 2800
8 | Cc1cc(COc2ccc(S(=O)(=O)N(C)C3C4CCC(C4)C3C(=O)NO)cc2)c2ccccc2n1 (single isomer, unassigned) [Example 1b, exo-N-hydroxy-3-[methyl({4-[(2-methylquinolin-4-yl)methoxy]phenyl}sulfonyl)amino]bicyclo[2.2.1]heptane-2-carboxamide] | > 16700 |  | 43 | 250 | > 16700 | > 16700 | > 16700 | 14000
9 | CC[C@]1(C(=O)NO)CCC[C@H]1NS(=O)(=O)c1ccc(OCc2cc(C)nc3ccccc23)cc1 [Example 56, (1S,2R)-N-hydroxy-1-ethyl-2-[({4-[(2-methylquinolin-4-yl)methoxy]phenyl}sulfonyl)amino]cyclopentanecarboxamide] | > 10000 | 48000 | 2.3 | > 1000 | > 10000 |  |  | 
10 | CC[C@]1(C(=O)NO)CCC[C@H]1N(C)S(=O)(=O)c1ccc(OCc2cc(C)nc3ccccc23)cc1 [Example 57, (1S,2R)-N-hydroxy-1-ethyl-2-[methyl({4-[(2-methylquinolin-4-yl)methoxy]phenyl}sulfonyl)amino]cyclopentanecarboxamide] | > 10000 | > 50000 | 9.6 | > 1000 | > 10000 |  |  | 
11 | Cc1cc(COc2ccc(S(=O)(=O)N[C@@H]3CCNC[C@]3(O)C(=O)NO)cc2)c2ccccc2n1 [Example 59, (3R,4R)-N,3-dihydroxy-4-[({4-[(2-methylquinolin-4-yl)methoxy]phenyl}sulfonyl)amino]piperidine-3-carboxamide] | > 10000 | 49000 | 109 | > 1000 | > 10000 |  |  | 
